For data set [1], the target named is T1, recombinant human 5-HT5A receptor (Homo sapiens, UniProt P47898).
T1 construct: expressed in transfected cells; host or cells: HEK-EBNA (Human Embryonic Kidney-EBNA) cells, transient cDNA expression; membranes used
Nature of the data set: [3H]LSD radioligand binding assay. Conditions: [3H]LSD (approximately 1 nM), membranes from HEK-EBNA cells transiently expressing 5-HT5A receptors; Ki from IC50 by Cheng-Prussoff equation. The method, then:
A [^3H]LSD radioligand binding assay was used to determine the affinity of the compounds for the recombinant human 5-HT5A receptor, in membranes from transiently (cDNA) expressed 5-HT5A receptors in Human Embryonic Kidney-EBNA (HEK-EBNA) cells. Assay buffer consisted of Tris (50 mM) buffer containing 1 mM EGTA, 10 mM MgCl2 (pH 7.4) and 10 μM pargyline. The binding assay was carried out in 96-well-plates in the presence of [^3H]LSD (approximately 1 nM), approximately 2 μg/well of membrane protein, and 0.5 mg of Ysi-poly-1-lysine SPA beads in a final volume of 200 μl of buffer. Non-specific binding was defined using methiothepin 2 μM. Compounds were tested at 10 concentrations. All assays were conducted in duplicate and repeated at least two times. Assay plates were incubated for 120 min at room temperature before centrifugation. Bound ligand was determined using a Packard Topcount scintillation counter. IC50 values were calculated using a non-linear curve fitting program and Ki values calculated using the Cheng-Prussoff equation.

What is called melting point is the temperature of the solid-liquid transition. A word on the Ki: it is the equilibrium dissociation constant of an inhibitor or competing ligand from its target.

T1 sequence (P47898 whole entry): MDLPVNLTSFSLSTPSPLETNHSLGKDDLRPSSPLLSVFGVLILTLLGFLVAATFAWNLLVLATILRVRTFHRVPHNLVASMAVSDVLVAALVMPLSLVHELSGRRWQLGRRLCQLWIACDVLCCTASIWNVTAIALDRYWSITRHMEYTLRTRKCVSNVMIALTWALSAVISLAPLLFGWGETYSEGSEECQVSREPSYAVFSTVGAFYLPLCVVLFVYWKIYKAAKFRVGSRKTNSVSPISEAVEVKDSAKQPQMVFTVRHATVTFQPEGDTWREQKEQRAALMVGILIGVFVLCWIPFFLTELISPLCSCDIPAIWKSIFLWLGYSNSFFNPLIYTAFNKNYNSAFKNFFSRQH

In turn, `COc1ccc(CC(=O)Nc2cccc3nc(NC4CCc5cc(F)ccc54)ccc23)cc1` (racemic) [Example 53, rac-N-[2-(5-Fluoro-indan-1-ylamino)-quinolin-5-yl]-2-(4-methoxy-phenyl)-acetamide] gave a melting point of 192 °C.

Compound `O=C(Cc1cccs1)Nc1cccc2nc(N[C@@H]3CCc4ccccc43)ccc12` [Example 46, N-[2-((R)-Indan-1-ylamino)-quinolin-5-yl]-2-thiophen-2-yl-acetamide] registered a melting point of 163.5 °C. Further, the Ki in data set [1] came to 36.1 nM.

As to `Nc1cccc2nc(NC3CCc4cc(F)ccc43)ccc12` (racemic) [Example 37, rac-N^2-[5-Fluoro-indan-1-yl]-quinoline-2,5-diamine], the Ki in data set [1] is 12.5 nM.

Take `N=C(NO)c1cccc2nc(N[C@@H]3CCc4ccccc43)ccc12` [Example 28, N-Hydroxy-2-((R)-indan-1-ylamino)-quinoline-5-carboxamidine]: the melting point stood at 200.5 °C. Besides, the Ki in data set [1] was 17.4 nM.

Regarding `CNc1cccc2nc(N[C@@H]3CCc4ccccc43)ccc12` [Example 1, N^2-(R)-Indan-1-yl-N^5-methyl-quinoline-2,5-diamine], in data set [1], the Ki is 22.5 nM.

For the compound `Nc1cccc2nc(N[C@@H]3CCc4ccccc43)ccc12` [Example 16, (R)—N^2-Indan-1-yl-quinoline-2,5-diamine], in data set [1], the Ki turned out to be 7.2 nM.

In the case of `COCCOc1cccc2nc(N[C@@H]3CCc4ccccc43)ccc12` [Example 24, (R)-Indan-1-yl-[5-(2-methoxy-ethoxy)-quinolin-2-yl]-amine], in data set [1], the Ki was determined as 90.6 nM.

As to `O=S(=O)(Nc1cccc2nc(N[C@@H]3CCc4ccccc43)ccc12)C1CC1` [Example 17, Cyclopropanesulfonic acid[2-((R)-indan-1-ylamino)-quinolin-5-yl]-amide], the Ki in data set [1] worked out at 32.2 nM.

In the case of `COc1cccc2c1C(Nc1ccc3c(NC(=O)Cc4cccs4)cccc3n1)CC2` (racemic) [Example 55, rac-N-[2-(7-Methoxy-indan-1-ylamino)-quinolin-5-yl]-2-thiophen-2-yl-acetamide], the melting point is 194 °C.

Consider `COc1cccc2c1C(Nc1ccc3c(NCCS(C)(=O)=O)cccc3n1)CO2` (racemic) [Example 40, N^5-(2-Methanesulfonyl-ethyl)-N^2-(RS)-(4-methoxy-2,3-dihydro-benzofuran-3-yl)-quinoline-2,5-diamine], for which the melting point turned out to be 188 °C. Also, in data set [1], the Ki was 29.1 nM.

Compound `O=C(Cc1ccc(F)cc1)Nc1cccc2nc(NC3CCc4cc(F)ccc43)ccc12` (racemic) [Example 48, rac-N-[2-(5-Fluoro-indan-1-ylamino)-quinolin-5-yl]-2-(4-fluoro-phenyl)-acetamide] registered a melting point of 187 °C. Moreover, the Ki in data set [1] stood at 17.6 nM.

Turning to `COc1cccc2c1C(Nc1ccc3c(N)cccc3n1)CC2` (racemic) [Example 19, rac-N^2-(7-Methoxy-indan-1-yl)-quinoline-2,5-diamine], the inhibition constant (Ki) in data set [1] came to 6.1 nM.

In the case of `COc1ccc(CC(=O)Nc2cccc3nc(N[C@@H]4CCc5ccccc54)ccc23)cc1` [Example 52, N-[2-((R)-Indan-1-ylamino)-quinolin-5-yl]-2-(4-methoxy-phenyl)-acetamide], the melting point was determined as 175 °C.

`O=C(CC1CCOCC1)Nc1cccc2nc(N[C@@H]3CCc4ccccc43)ccc12` [Example 35, N-[2-((R)-Indan-1-ylamino)-quinolin-5-yl]-2-(tetrahydro-pyran-4-yl)-acetamide] came in with a melting point of 211 °C.

In turn, `O=C(Cc1cc(F)cc(F)c1)Nc1cccc2nc(NC3CCc4cc(F)ccc43)ccc12` (racemic) [Example 50, rac-2-(3,5-Difluoro-phenyl)-N-[2-(5-fluoro-indan-1-ylamino)-quinolin-5-yl]-acetamide] registered a melting point of 203 °C.

Consider `COc1cccc2c1C(Nc1ccc3c(NC(=O)Cc4ccc(F)cc4)cccc3n1)CC2` (racemic) [Example 54, rac-2-(4-Fluoro-phenyl)-N-[2-(7-methoxy-indan-1-ylamino)-quinolin-5-yl]-acetamide], for which the melting point is 195 °C. The Ki in data set [1] was found to be 11 nM.

Compound `O=C(Cc1ccc(Cl)cc1)Nc1cccc2nc(N[C@@H]3CCc4ccccc43)ccc12` [Example 60, 2-(4-Chloro-phenyl)-N-[2-((R)-indan-1-ylamino)-quinolin-5-yl]-acetamide] returned a melting point of 170 °C. Further, in data set [1], the Ki is 5.5 nM.

In turn, `ON=C(c1cccc2nc(N[C@@H]3CCc4ccccc43)ccc12)C1CC1` [Example 31, Cyclopropyl-[2-((R)-indan-1-ylamino)-quinolin-5-yl]-methanone oxime] yielded a melting point of 151 °C. Moreover, in data set [1], the Ki was found to be 5.8 nM.

Regarding `O=C(CN1CCOCC1)Nc1cccc2nc(N[C@@H]3CCc4ccccc43)ccc12` [Example 33, N-[2-((R)-Indan-1-ylamino)-quinolin-5-yl]-2-morpholin-4-yl-acetamide], the melting point was 179 °C.

Take `Nc1cccc2nc(NC3Cc4ccccc4C3)ccc12` (racemic) [Example 23, rac-N^2-Indan-2-yl-quinoline-2,5-diamine]: in data set [1], the Ki amounted to 219 nM.

The compound `COc1cccc2c1C(Nc1ccc3c(NC(=O)Cc4cc(F)cc(F)c4)cccc3n1)CC2` (racemic) [Example 56, rac-2-(3,5-Difluoro-phenyl)-N-[2-(7-methoxy-indan-1-ylamino)-quinolin-5-yl]-acetamide] registered a melting point of 248 °C.

For `CS(=O)(=O)CCNc1cccc2nc(N[C@@H]3CCc4ccccc43)ccc12` [Example 7, N^2-(R)-Indan-1-yl-N^5-(2-methanesulfonyl-ethyl)-quinoline-2,5-diamine], the Ki in data set [1] was determined as 24.7 nM.

Consider `O=C(Cn1ccnc1)Nc1cccc2nc(N[C@@H]3CCc4ccccc43)ccc12` [Example 47, 2-Imidazol-1-yl-N-[2-((R)-indan-1-ylamino)-quinolin-5-yl]-acetamide], for which the melting point was determined as 226 °C.

For `C[S+]([O-])CCNc1cccc2nc(N[C@@H]3CCc4ccccc43)ccc12` (stereo partly drawn) [Example 6, N^2-(R)-Indan-1-yl-N^5-(2-methanesulfinyl-ethyl)-quinoline-2,5-diamine], the Ki in data set [1] is 26.5 nM.

Take `c1ccc2c(c1)CC[C@H]2Nc1ccc2c(NC3CCOCC3)cccc2n1` [Example 3, N^2-(R)-Indan-1-yl-N^5-(tetrahydro-pyran-4-yl)-quinoline-2,5-diamine]: in data set [1], the Ki came out at 26 nM.

In the case of `O=C(Cc1cc(F)cc(F)c1)Nc1cccc2nc(N[C@@H]3CCc4ccccc43)ccc12` [Example 59, 2-(3,5-Difluoro-phenyl)-N-[2-((R)-indan-1-ylamino)-quinolin-5-yl]-acetamide], the melting point stood at 221 °C. In addition, in data set [1], the inhibition constant Ki amounted to 28.7 nM.

Compound `O=C(Cc1ccc(F)cc1)Nc1cccc2nc(N[C@@H]3CCc4ccccc43)ccc12` [Example 45, 2-(4-Fluoro-phenyl)-N-[2-((R)-indan-1-ylamino)-quinolin-5-yl]-acetamide] came in with a melting point of 207 °C. The Ki in data set [1] was determined as 11 nM.

Compound `COc1ccc(CC(=O)Nc2cccc3nc(NC4CCc5cccc(OC)c54)ccc23)cc1` (racemic) [Example 58, rac-N-[2-(7-Methoxy-indan-1-ylamino)-quinolin-5-yl]-2-(4-methoxy-phenyl)-acetamide] had a melting point of 209 °C.

`COc1cccc2c1C(Nc1ccc3c(NS(=O)(=O)N(C)C)cccc3n1)CC2` (racemic) [Example 20, rac-N′-{2-[(7-methoxy-indan-1-yl)amino]quinolin-5-yl}-N,N-dimethylsulfamide]: in data set [1], the Ki was determined as 2.3 nM.

Take `O=C(Nc1cccc2nc(N[C@@H]3CCc4ccccc43)ccc12)C1CC1` [Example 22, Cyclopropanecarboxylic acid[2-((R)-indan-1-ylamino)-quinolin-5-yl]-amide]: the Ki in data set [1] came out at 68 nM.

For `O=C(Cc1cccs1)Nc1cccc2nc(NC3CCc4cc(F)ccc43)ccc12` (racemic) [Example 49, rac-N-[2-(5-Fluoro-indan-1-ylamino)-quinolin-5-yl]-2-thiophen-2-yl-acetamide], the melting point was found to be 184 °C.

As to `c1ccc2c(c1)CC[C@H]2Nc1ccc2c(N3CCOCC3)cccc2n1` [Example 4, (R)-Indan-1-yl-(5-morpholin-4-yl-quinolin-2-yl)-amine], the inhibition constant Ki in data set [1] was determined as 105 nM.

In the case of `c1ccc2c(c1)CC[C@H]2Nc1ccc2c(C3CC3)cccc2n1` [Example 44, (5-Cyclopropyl-quinolin-2-yl)-(R)-indan-1-yl-amine], the Ki in data set [1] amounted to 27.7 nM.

On to `CSCCNc1cccc2nc(N[C@@H]3CCc4ccccc43)ccc12` [Example 5, N^2-(R)-Indan-1-yl-N^5-(2-methylsulfanyl-ethyl)-quinoline-2,5-diamine], for which, in data set [1], the Ki came out at 23.5 nM.

As for `COc1cccc2c1C(Nc1ccc3c(NCCSC)cccc3n1)CO2` (racemic) [Example 39, rac-N^2-(4-Methoxy-2,3-dihydro-benzofuran-3-yl)-N^5-(2-methylsulfanyl-ethyl)-quinoline-2,5-diamine], the Ki in data set [1] was 25.2 nM.

In the case of `CN(C)CC(=O)Nc1cccc2nc(N[C@@H]3CCc4ccccc43)ccc12` [Example 32, 2-Dimethylamino-N-[2-((R)-indan-1-ylamino)-quinolin-5-yl]-acetamide], the melting point worked out at 153 °C.

The values are drawn from patent US7994324B2, “2-aminoquinoline derivatives” (Hoffmann-La Roche Inc., priority 2008, dated 2011).
